# Data as given in PMC4452912 (Viruses, 2015).
# Like-named read-outs stand apart in the source and are kept apart here.
# Experiments:
# ER α-glucosidase II = ER α-glucosidase II (Rattus norvegicus, UniProt A0A8I6GFL3); assay: Purified enzyme inhibition, ER α-glucosidase II; assay type: biochemical; settings: rat liver enzyme
# [1] = tested on: ER α-glucosidases I and II; assay: Cellular free oligosaccharide (FOS) assay in HL60 cells; assay type: cell-based, human; settings: 24 h, mono- and tri-glucosylated FOS
# ER α-glucosidase I = biological target: T1, ER α-glucosidase I (Bos taurus, UniProt A0A3Q1M9D9); assay type: cell-based
# T1 sequence (A0A3Q1M9D9 1-839): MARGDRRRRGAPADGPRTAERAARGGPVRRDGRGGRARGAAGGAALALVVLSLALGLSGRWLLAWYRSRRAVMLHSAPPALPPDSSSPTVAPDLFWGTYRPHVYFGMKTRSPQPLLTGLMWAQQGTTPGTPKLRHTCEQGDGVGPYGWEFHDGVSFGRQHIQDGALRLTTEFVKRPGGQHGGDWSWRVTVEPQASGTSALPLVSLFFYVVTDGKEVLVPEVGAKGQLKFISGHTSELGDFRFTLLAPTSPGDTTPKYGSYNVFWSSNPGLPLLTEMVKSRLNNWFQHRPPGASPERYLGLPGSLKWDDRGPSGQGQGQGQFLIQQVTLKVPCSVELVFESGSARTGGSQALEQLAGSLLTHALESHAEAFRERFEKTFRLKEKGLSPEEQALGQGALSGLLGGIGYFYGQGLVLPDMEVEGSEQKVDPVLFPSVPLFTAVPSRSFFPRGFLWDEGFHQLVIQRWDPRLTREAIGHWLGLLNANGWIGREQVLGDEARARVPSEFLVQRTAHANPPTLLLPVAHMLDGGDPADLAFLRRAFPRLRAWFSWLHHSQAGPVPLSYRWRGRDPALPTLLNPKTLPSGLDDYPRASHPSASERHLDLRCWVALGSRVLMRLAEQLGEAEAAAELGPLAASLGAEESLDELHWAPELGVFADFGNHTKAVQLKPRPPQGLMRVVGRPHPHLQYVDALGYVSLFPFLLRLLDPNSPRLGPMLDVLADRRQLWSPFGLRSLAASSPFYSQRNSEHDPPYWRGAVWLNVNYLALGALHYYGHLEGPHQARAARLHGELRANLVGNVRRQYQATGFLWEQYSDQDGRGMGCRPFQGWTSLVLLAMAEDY
# in vitro [2] = assay type: cell-based, canine; settings: dog
# [3] = tested on: DENV (serotype 2, New Guinea C isolate); assay: microbe, parasite or virus in culture; assay type: cell-based; settings: Dengue virus, DENV2, 120 h; Vero cells, MOI 0.01, 5 days; mean of duplicate
# in vitro [4] = assay type: in vitro ADME; settings: human, Caco-2
# in vitro [5] = assay type: in vitro ADME; settings: rat, plasma
# in vitro [6] = assay type: in vitro ADME; settings: mouse, plasma
# in vitro [7] = assay type: in vitro ADME; settings: human, microsomes
# in vitro [8] = assay type: in vitro ADME; settings: dog, microsomes
# in vitro [9] = assay type: in vitro ADME; settings: mouse, microsomes
# CYP2D6 = CYP2D6 (Homo sapiens, UniProt P10635); assay: CYP inhibition in human liver microsomes, CYP2D6; assay type: in vitro ADME
# Chain of CYP2D6 (P10635 whole entry): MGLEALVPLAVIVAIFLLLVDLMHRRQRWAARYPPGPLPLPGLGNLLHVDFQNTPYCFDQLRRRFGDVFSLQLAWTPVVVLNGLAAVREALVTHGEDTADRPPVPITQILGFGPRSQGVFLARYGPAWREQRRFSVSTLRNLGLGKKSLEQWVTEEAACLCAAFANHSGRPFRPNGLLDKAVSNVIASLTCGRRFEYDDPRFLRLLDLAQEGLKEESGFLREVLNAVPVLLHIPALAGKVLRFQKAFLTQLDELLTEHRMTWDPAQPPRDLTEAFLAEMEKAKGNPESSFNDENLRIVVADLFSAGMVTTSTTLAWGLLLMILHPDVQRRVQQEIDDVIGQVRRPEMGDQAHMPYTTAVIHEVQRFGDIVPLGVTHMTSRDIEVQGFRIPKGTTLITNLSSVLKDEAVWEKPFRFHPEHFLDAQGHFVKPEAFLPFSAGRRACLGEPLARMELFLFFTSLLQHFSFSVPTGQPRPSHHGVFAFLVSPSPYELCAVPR
# DENV2 strain S221 [10] = assay type: in vivo, AG129 mice
# DENV2 strain S221 [11] = assay: Dengue viral load by qRT-PCR in serum and tissues of AG129 mice; assay type: in vivo; settings: 100 mg/kg TID
# [12] = tested on: circulating cytokines and chemokines; assay: Serum cytokine levels in DENV infected AG129 mice (23-plex); assay type: in vivo; settings: 100 mg/kg TID
# [13] = Maximum tolerated dose in guinea pigs; assay type: in vivo, Hartley guinea pigs; settings: for MTD at 7 days: female, Hartley, guinea pig, in vivo, single bolus
# Mouse pharmacokinetics = assay type: in vivo, Swiss Albino mice; settings: male, Swiss Albino
# [14] = Guinea pig pharmacokinetics; assay type: in vivo, Hartley guinea pigs; settings: Hartley; for half-life: plasma, guinea pigs
# physchem = settings: aqueous buffer
# [15] = 72 h post infection, vs vehicle
# Chain of ER α-glucosidase II (A0A8I6GFL3 33-944): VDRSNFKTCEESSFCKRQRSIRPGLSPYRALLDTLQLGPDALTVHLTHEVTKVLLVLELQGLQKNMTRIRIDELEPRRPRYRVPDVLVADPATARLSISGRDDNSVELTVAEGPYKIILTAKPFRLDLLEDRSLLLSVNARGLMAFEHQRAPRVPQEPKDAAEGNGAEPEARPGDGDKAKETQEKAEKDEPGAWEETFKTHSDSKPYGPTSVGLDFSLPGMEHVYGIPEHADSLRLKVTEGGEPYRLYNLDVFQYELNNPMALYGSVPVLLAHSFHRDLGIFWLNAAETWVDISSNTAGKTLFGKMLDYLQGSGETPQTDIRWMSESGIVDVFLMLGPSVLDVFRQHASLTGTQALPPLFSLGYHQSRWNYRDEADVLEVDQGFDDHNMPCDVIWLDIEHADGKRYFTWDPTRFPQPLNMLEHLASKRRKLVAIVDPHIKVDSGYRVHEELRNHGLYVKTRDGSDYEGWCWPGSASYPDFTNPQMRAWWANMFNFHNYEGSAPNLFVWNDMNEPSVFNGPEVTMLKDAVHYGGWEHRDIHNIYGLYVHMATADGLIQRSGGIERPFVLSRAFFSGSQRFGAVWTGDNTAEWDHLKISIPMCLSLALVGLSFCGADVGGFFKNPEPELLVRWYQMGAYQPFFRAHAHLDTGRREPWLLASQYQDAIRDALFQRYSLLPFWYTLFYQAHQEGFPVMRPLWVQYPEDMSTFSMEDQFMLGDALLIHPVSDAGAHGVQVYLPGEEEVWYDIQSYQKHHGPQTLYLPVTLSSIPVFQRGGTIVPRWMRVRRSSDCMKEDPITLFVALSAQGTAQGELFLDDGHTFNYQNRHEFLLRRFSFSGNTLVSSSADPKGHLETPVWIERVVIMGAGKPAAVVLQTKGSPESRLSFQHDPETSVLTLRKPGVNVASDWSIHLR
compound,measurement,setting,value
OC[C@@H]1[C@@H](O)[C@H](O)[C@@H](O)CN1CCCCCCCCC1CCCO1 (stereo partly shown) [UV-12],IC50,"ER α-glucosidase II; Glc1 substrate, mean and SD, triplicate, read-out: IC50 α-glc II, Glc1",830 ± 370 nM
same,IC50,"ER α-glucosidase II; Glc2 substrate, mean and SD, triplicate, read-out: IC50 α-glc II, Glc2",1100 ± 480 nM
same,IC50,"ER α-glucosidase II; range over the two activities (Glc2, Glc1), read-out: IC50 for α-glucosidase II",830 to 1100 nM
same,inhibition of ER α-glucosidase enzymes in cell-based FOS assay,[1],inhibited
same,cellular half-life of UV-12 inhibition (blockage of α-glucosidase I),ER α-glucosidase I,307 ± 109 min
same,reversibility of inhibition in cells,ER α-glucosidase I; MDBK cells,reversible inhibitor
same,CC50 at 5 days,in vitro [2],> 500000 nM
same,IC50,[3],21700 nM
same,efflux ratio at 10 µM,in vitro [4],4
same,"fraction unbound at 6 h, 10 μM",in vitro [5],0.32
same,"fraction unbound at 6 h, 10 μM",in vitro [6],0.36
same,Liver microsome metabolic stability CLintr,in vitro [7],<0.6 mL/min/g liver
same,half-life at 0.5 µM,in vitro [7],> 30 min
same,parent drug remained after 30 min,"in vitro [7]; 0.5 h, 0.5 µM",100%
same,Liver microsome metabolic stability CLintr,in vitro [8],<0.6 mL/min/g liver
same,half-life at 0.5 µM,in vitro [8],> 30 min
same,parent drug remained after 30 min,"in vitro [8]; 0.5 h, 0.5 µM",100%
same,Liver microsome metabolic stability CLintr,in vitro [9],<0.6 mL/min/g liver
same,half-life at 0.5 µM,in vitro [9],> 30 min
same,parent drug remained after 30 min,"in vitro [9]; 0.5 h, 0.5 µM",100%
same,IC50,CYP2D6,> 100000 nM
same,animals protected (survival),DENV2 strain S221 [10]; 20 mg/kg PO TID 7 days from 1 h before challenge,100%
same,animals protected (survival),DENV2 strain S221 [10]; 100 mg/kg PO TID 7 days from 1 h before challenge,100%
same,"viral loads in serum, liver or spleens",DENV2 strain S221 [11]; 72 and 96 h,not reduced
same,"decrease in viral load, kidneys",DENV2 strain S221 [11]; [15],12.9 fold
same,"decrease in viral load, small intestine",DENV2 strain S221 [11]; [15],6.1 fold
same,"increase in virus titers, spleens",DENV2 strain S221 [11]; 72 h time point,5 fold
same,"decrease in viral load, kidneys","DENV2 strain S221 [11]; 96 h post infection, vs vehicle",5.23 fold
same,Levels of IL-9 and eotaxin,[12],not different
same,reduction in MCP-1,"[12]; 72 h, p = 0.0641",not significant
same,KC levels,[12]; 72 h only,significantly higher
same,Levels of IFN-γ,[12]; only at 72 h,significantly reduced
same,"MIP-1β, RANTES, and IL-10 levels",[12]; only at 96 h,reduced
same,overall circulating cytokine levels,[12]; vs vehicle,dampened
same,"clinical signs and mortality, 7 days observation","[13]; IM 20-100 mg/kg, IV 10-80 mg/kg",no clinical signs of toxicity or mortality
same,MTD at 7 days,[13]; IV route,> 80 mg/kg
same,MTD at 7 days,"[13]; im, intramuscular route",> 100 mg/kg
same,Cmax,Mouse pharmacokinetics; in vivo,8880 to 12600 ng/mL
same,bioavailability,Mouse pharmacokinetics; in vivo,77%
same,CL as % of mouse liver blood flow,"Mouse pharmacokinetics; in vivo, iv",31%
same,Vss relative to total body water,"Mouse pharmacokinetics; in vivo, iv",3 fold
same,AUC(0-inf),"Mouse pharmacokinetics; in vivo, iv, 10 mg/kg",5910 ng·h/mL
same,AUC(0-t),"Mouse pharmacokinetics; in vivo, iv, 10 mg/kg",5900 ng·h/mL
same,Cmax,"Mouse pharmacokinetics; in vivo, iv, 10 mg/kg",8880 ng/mL
same,Vd,"Mouse pharmacokinetics; in vivo, iv, 10 mg/kg",1.98 L/kg
same,clearance,"Mouse pharmacokinetics; in vivo, iv, 10 mg/kg",28.2 mL/min/kg
same,AUC(0-inf),"Mouse pharmacokinetics; in vivo, po, 100 mg/kg",45500 ng·h/mL
same,AUC(0-t),"Mouse pharmacokinetics; in vivo, po, 100 mg/kg",43100 ng·h/mL
same,Cmax,"Mouse pharmacokinetics; in vivo, po, 100 mg/kg",12600 ng/mL
same,Tmax,"Mouse pharmacokinetics; in vivo, po, 100 mg/kg",30 min
same,half-life,"Mouse pharmacokinetics; plasma, mice, IV 10 mg/kg",115 min
same,Cmax,[14]; in vivo,8850 to 11600 ng/mL
same,Tmax,[14]; in vivo,15 to 30 min
same,AUC(0-inf),"[14]; female, in vivo, im, 100 mg/kg",19200 ng·h/mL
same,AUC(0-t),"[14]; female, in vivo, im, 100 mg/kg",19100 ng·h/mL
same,Cmax,"[14]; female, in vivo, im, 100 mg/kg",11600 ng/mL
same,Tmax,"[14]; female, in vivo, im, 100 mg/kg",15 min
same,bioavailability,"[14]; female, in vivo, im, 100 mg/kg",109%
same,Vss relative to normal body water,"[14]; female, in vivo, iv",> 8 fold
same,AUC(0-inf),"[14]; female, in vivo, iv, 25 mg/kg",4400 ± 599 ng·h/mL
same,AUC(0-t),"[14]; female, in vivo, iv, 25 mg/kg",4370 ± 583 ng·h/mL
same,Cmax,"[14]; female, in vivo, iv, 25 mg/kg",8860 ng/mL
same,Vd,"[14]; female, in vivo, iv, 25 mg/kg",5.14 ± 0.64 L/kg
same,clearance,"[14]; female, in vivo, iv, 25 mg/kg",95.9 ± 12.7 mL/min/kg
same,AUC(0-inf),"[14]; female, in vivo, sc, 100 mg/kg",23100 ng·h/mL
same,AUC(0-t),"[14]; female, in vivo, sc, 100 mg/kg",23000 ng·h/mL
same,Cmax,"[14]; female, in vivo, sc, 100 mg/kg",11000 ng/mL
same,Tmax,"[14]; female, in vivo, sc, 100 mg/kg",30 min
same,bioavailability,"[14]; female, in vivo, sc, 100 mg/kg",131%
same,half-life,"[14]; female, IM 100 mg/kg",119 ± 54.6 min
same,half-life,"[14]; female, IV 25 mg/kg",84 ± 5.4 min
same,half-life,"[14]; female, SC 100 mg/kg",133 ± 22.2 min
same,solubility,physchem,> 100 mg/mL
